In ChEMBL document CHEMBL1124222 (J Med Chem, 1988) one finds Ki data, which are given here for 5 molecules.

Molecules are shown by their SMILES.

The target in one assay is T1, D(2) dopamine receptor (Rattus norvegicus, UniProt P61169). Kind of assay: Affinity constant of compound was evaluated in rat striatum tissue preparation. The assay is classed as tissue-based.
T1 sequence (P61169 whole entry): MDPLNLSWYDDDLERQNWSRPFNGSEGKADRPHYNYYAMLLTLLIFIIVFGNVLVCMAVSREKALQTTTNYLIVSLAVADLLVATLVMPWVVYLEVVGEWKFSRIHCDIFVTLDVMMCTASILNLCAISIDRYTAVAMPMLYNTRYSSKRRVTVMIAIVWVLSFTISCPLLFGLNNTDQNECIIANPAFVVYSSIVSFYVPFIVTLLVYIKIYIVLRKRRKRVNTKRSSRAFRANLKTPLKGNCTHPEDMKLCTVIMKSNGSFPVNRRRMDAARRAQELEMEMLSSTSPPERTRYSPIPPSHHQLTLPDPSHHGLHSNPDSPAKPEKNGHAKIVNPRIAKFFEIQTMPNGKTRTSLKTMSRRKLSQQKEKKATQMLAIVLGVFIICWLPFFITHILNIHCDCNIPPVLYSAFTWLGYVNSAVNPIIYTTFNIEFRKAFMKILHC
As for `CCN1CCCC1CNC(=O)c1c(OC)ccc(I)c1O` (stereo unspecified), the affinity, expressed as Ki, was 0.00043 µM. Regarding `CCN1CCC[C@H]1CNC(=O)c1c(O)cccc1OC`, affinity was put at a Ki of 0.0311 µM.

The target of a further assay is T1, D(2) dopamine receptor. The assay is described as follows: Inhibitory constant against binding of [125I]- IBZM to rat striatal membrane. The arrangement: species or system Striatum.
Turning to `CCN1CCC[C@@H]1CNC(=O)c1c(OC)ccc(I)c1O`, the Ki amounted to 0.0303 µM. As to `CCN1CCC[C@H]1CNC(=O)c1c(O)cccc1OC`, the affinity, expressed as Ki, was 0.0311 µM.

Take `CCN1CCC[C@H]1CNC(=O)c1c(OC)ccc(I)c1O` [IOLOPRIDE]: the Ki was 0.000633 µM.

The molecule `O=C(c1ccc(F)cc1)C1CCN(CCn2c(=O)[nH]c3ccccc3c2=O)CC1` [KETANSERIN] returned a Ki of 0.359 µM.

The Ki is a measure of affinity in units of concentration, obtained from inhibition or displacement.
